Measurements: ChEMBL document CHEMBL1201862, “PubChem BioAssay data set” (2004)
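Following 48 hours of exposure in 96-well plates, responses at five concentrations were used to interpolate endpoints linearly. At the GI50, growth is halved.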 Activity calls are given as the source filed them. Cut-off read from the data, not from the text of the source: active = GI50 up to about 1.1 µM and inactive = higher.

How the values were obtained:
Assay in all cases: inhibition of tumour cell growth, NCI panel, 48 h
SW-620 = test system: SW-620
RPMI-8226 = test system: RPMI-8226
MDA-MB-435 = test system: MDA-MB-435
SK-MEL-28 = test system: SK-MEL-28
HT-29 = test system: HT-29
ACHN = test system: ACHN
COLO 205 = test system: COLO 205
HCT-116 = test system: HCT-116
A549 = test system: A549
SNB-75 = test system: SNB-75
KM12 = test system: KM12
MOLT-4 = test system: MOLT-4
Hs-578T = test system: Hs-578T
HOP-62 = test system: HOP-62
OVCAR-5 = test system: OVCAR-5
NCI-H522 = test system: NCI-H522
HCC 2998 = test system: HCC 2998
786-0 = test system: 786-0
SNB-19 = test system: SNB-19
RXF 393 = test system: RXF 393
CAKI-1 = test system: CAKI-1
NCI-H23 = test system: NCI-H23
UACC-257 = test system: UACC-257
SK-OV-3 = test system: SK-OV-3
SR = test system: SR
HOP-92 = test system: HOP-92
LOX IMVI = test system: LOX IMVI
A498 = test system: A498
NCI-H460 = test system: NCI-H460
EKVX = test system: EKVX
MCF7 = test system: MCF7
UO-31 = test system: UO-31
HCT-15 = test system: HCT-15
OVCAR-3 = test system: OVCAR-3
BT-549 = test system: BT-549
SF-268 = test system: SF-268
K562 = test system: K562
NCI/ADR-RES = test system: NCI/ADR-RES
MDA-MB-231 = test system: MDA-MB-231
IGROV-1 = test system: IGROV-1
Malme-3M = test system: Malme-3M
TK-10 = test system: TK-10
T47D = test system: T47D
SK-MEL-5 = test system: SK-MEL-5
NCI-H226 = test system: NCI-H226
M14 = test system: M14
HL-60 = test system: HL-60
SK-MEL-2 = test system: SK-MEL-2
U-251 = test system: U-251
SF-539 = test system: SF-539
OVCAR-4 = test system: OVCAR-4
SF-295 = test system: SF-295
UACC-62 = test system: UACC-62
DU-145 = test system: DU-145
CCRF-CEM = test system: CCRF-CEM
SN12C = test system: SN12C

**Q.** How did the GI50 (SW-620) turn out when S=C(Nc1ccccc1)N(Cc1ccccc1)c1ccccc1 was run?
**A.** 13.7 µM (inactive)

**Q.** And the GI50 (RPMI-8226)?
**A.** 34.9 µM (inactive)

**Q.** What about the GI50 (MDA-MB-435) of the same compound?
**A.** 20.3 µM (inactive)

**Q.** What about the GI50 (SK-MEL-28) of the same compound?
**A.** 17.4 µM (inactive)

**Q.** What about the GI50 (HT-29) of the same compound?
**A.** 22.5 µM (inactive)

**Q.** And the GI50 (ACHN)?
**A.** 35 µM (inactive)

**Q.** And the GI50 (COLO 205)?
**A.** 23.3 µM (inactive)

**Q.** And the GI50 (HCT-116)?
**A.** 40.1 µM (inactive)

**Q.** And the GI50 (A549)?
**A.** 29.8 µM (inactive)

**Q.** And the GI50 (SNB-75)?
**A.** 22.5 µM (inactive)

**Q.** What about the GI50 (KM12) of the same compound?
**A.** 21.2 µM (inactive)

**Q.** And the GI50 (MOLT-4)?
**A.** 25.5 µM (inactive)

**Q.** What about the GI50 (Hs-578T) of the same compound?
**A.** 20 µM (inactive)

**Q.** What about the GI50 (HOP-62) of the same compound?
**A.** 49.3 µM (inactive)

**Q.** And the GI50 (OVCAR-5)?
**A.** > 100 µM (inactive)

**Q.** And the GI50 (NCI-H522)?
**A.** 21 µM (inactive)

**Q.** And the GI50 (HCC 2998)?
**A.** > 100 µM (inactive)

**Q.** What about the GI50 (786-0) of the same compound?
**A.** 74.3 µM (inactive)

**Q.** What about the GI50 (SNB-19) of the same compound?
**A.** 80.2 µM (inactive)

**Q.** What about the GI50 (RXF 393) of the same compound?
**A.** 22.6 µM (inactive)

**Q.** And the GI50 (CAKI-1)?
**A.** 24.2 µM (inactive)

**Q.** And the GI50 (NCI-H23)?
**A.** > 100 µM (inactive)

**Q.** What about the GI50 (UACC-257) of the same compound?
**A.** 22.4 µM (inactive)

**Q.** And the GI50 (SK-OV-3)?
**A.** > 100 µM (inactive)

**Q.** And the GI50 (SR)?
**A.** 20.5 µM (inactive)

**Q.** What about the GI50 (HOP-92) of the same compound?
**A.** 29.9 µM (inactive)

**Q.** What about the GI50 (LOX IMVI) of the same compound?
**A.** 33 µM (inactive)

**Q.** What about the GI50 (A498) of the same compound?
**A.** 14.6 µM (inactive)

**Q.** And the GI50 (NCI-H460)?
**A.** 28.6 µM (inactive)

**Q.** And the GI50 (EKVX)?
**A.** 17.5 µM (inactive)

**Q.** And the GI50 (MCF7)?
**A.** 33.7 µM (inactive)

**Q.** What about the GI50 (UO-31) of the same compound?
**A.** 29.3 µM (inactive)

**Q.** What about the GI50 (HCT-15) of the same compound?
**A.** 40.4 µM

**Q.** What about the GI50 (OVCAR-3) of the same compound?
**A.** 30.2 µM (inactive)

**Q.** What about the GI50 (BT-549) of the same compound?
**A.** 0.34 µM (active)

**Q.** And the GI50 (SF-268)?
**A.** 34.8 µM (inactive)

**Q.** And the GI50 (K562)?
**A.** 29.7 µM (inactive)

**Q.** What about the GI50 (NCI/ADR-RES) of the same compound?
**A.** > 100 µM (inactive)

**Q.** What about the GI50 (MDA-MB-231) of the same compound?
**A.** 45.6 µM (inactive)

**Q.** And the GI50 (IGROV-1)?
**A.** 44.4 µM (inactive)

**Q.** What about the GI50 (Malme-3M) of the same compound?
**A.** 11.2 µM (inactive)

**Q.** What about the GI50 (TK-10) of the same compound?
**A.** 29.7 µM (inactive)

**Q.** What about the GI50 (T47D) of the same compound?
**A.** 56 µM (inactive)

**Q.** What about the GI50 (SK-MEL-5) of the same compound?
**A.** 13.8 µM (inactive)

**Q.** And the GI50 (NCI-H226)?
**A.** 35.7 µM (inactive)

**Q.** And the GI50 (M14)?
**A.** 40.1 µM (inactive)

**Q.** What about the GI50 (HL-60) of the same compound?
**A.** 27.8 µM (inactive)

**Q.** What about the GI50 (SK-MEL-2) of the same compound?
**A.** 17.3 µM (inactive)

**Q.** What about the GI50 (U-251) of the same compound?
**A.** 42.6 µM (inactive)

**Q.** What about the GI50 (SF-539) of the same compound?
**A.** 17.7 µM (inactive)

**Q.** What about the GI50 (OVCAR-4) of the same compound?
**A.** 23.7 µM (inactive)

**Q.** What about the GI50 (SF-295) of the same compound?
**A.** 34.3 µM (inactive)

**Q.** And the GI50 (UACC-62)?
**A.** 21.6 µM (inactive)

**Q.** What about the GI50 (DU-145) of the same compound?
**A.** 6.75 µM (inactive)

**Q.** And the GI50 (CCRF-CEM)?
**A.** 28.4 µM (inactive)

**Q.** What about the GI50 (SN12C) of the same compound?
**A.** 44.1 µM (inactive)
